Drawing on patent US9765056B2, “Indole and pyrrole compounds, a process for their preparation and pharmaceutical compositions containing them” (LES LABORATOIRES SERVIER, priority 2013, dated 2017), this text covers IC50 for 14 compounds.

Usually IC50 stands for the concentration at which inhibition is half-maximal.

Structures can show the parent of a compound that is named as a salt.

Test [1] concerns RS4;11 leukaemia tumour line. Kind of test: In vitro cytotoxicity, Microculture Tetrazolium Assay (MTT). It is filed as cell-based. The settings on record: RS4;11 cells, 48 hours exposure. The method, then: The cytotoxicity studies were carried out on the RS4;11 leukaemia tumour line.
The cells are distributed onto microplates and exposed to the test compounds for 48 hours. The cell viability is then quantified by a colorimetric assay, the Microculture Tetrazolium Assay (Cancer Res., 1987, 47, 939-942).

For a further test, the target named is Bcl-2 protein (histag-Bcl-2, UniProtKB P10415) (Homo sapiens (Human), UniProt P10415). The experiment in a line: Inhibition of Bcl-2 by the fluorescence polarisation technique. Format: binding. The settings on record: fluorescence polarisation test; method A, or method B where underlined (underlining not visible); read-out: IC50 (nM) Bcl-2 FP. From the text: Inhibition of Bcl-2 by the fluorescence polarisation technique
Sequence of Bcl-2 protein (P10415 whole entry): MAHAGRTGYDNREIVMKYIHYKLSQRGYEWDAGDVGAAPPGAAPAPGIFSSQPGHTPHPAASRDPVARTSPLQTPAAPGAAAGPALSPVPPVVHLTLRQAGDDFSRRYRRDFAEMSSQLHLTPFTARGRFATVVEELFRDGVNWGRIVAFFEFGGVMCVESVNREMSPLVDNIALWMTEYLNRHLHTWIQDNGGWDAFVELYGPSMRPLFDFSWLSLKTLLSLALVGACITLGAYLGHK

For `CN1CCN(C[C@@H]2Cc3ccccc3CN2C(=O)c2cc3c(cc2-n2cc(C(=O)N(c4ccc(O)cc4)c4ccc(F)c(F)c4)c4ccccc42)OCO3)CC1` [Example 56, N-(3,4-Difluorophenyl)-N-(4-hydroxyphenyl)-1-(6-{[(3S)-3-[(4-methylpiperazin-1-yl)methyl]-3,4-dihydroisoquinolin-2(1H)-yl]carbonyl}-1,3-benzodioxol-5-yl)-1H-indole-3-carboxamide], the IC50 amounted to 135 nM in test [1] (Homo sapiens) and 5 nM at Bcl-2 protein.

On to `Cc1ccc(N(C(=O)c2cn(-c3cc(Br)ccc3C(=O)N3Cc4ccccc4C[C@H]3CN3CCN(C)CC3)c3ccccc23)c2ccc(O)cc2)cc1` [Example 57, 1-(5-Bromo-2-{[(3S)-3-[(4-methylpiperazin-1-yl)methyl]-3,4-dihydroisoquinolin-2(1H)-yl]carbonyl}phenyl)-N-(4-hydroxyphenyl)-N-(4-methylphenyl)-1H-indole-3-carboxamide], for which the IC50 in test [1] (Homo sapiens) was found to be 267 nM; at Bcl-2 protein, 13.4 nM.

As for `CN1CCN(C[C@@H]2Cc3ccccc3CN2C(=O)c2cc3c(cc2-n2cc(C(=O)N(c4ccc(O)cc4)c4ccc(F)c(Cl)c4)c4ccccc42)OCO3)CC1` [Example 58, N-(3-Chloro-4-fluorophenyl)-N-(4-hydroxyphenyl)-1-(6-{[(3S)-3-[(4-methylpiperazin-1-yl)methyl]-3,4-dihydroisoquinolin-2(1H)-yl]carbonyl}-1,3-benzodioxol-5-yl)-1H-indole-3-carboxamide hydrochloride], the values for the IC50 (in test [1] (Homo sapiens); on Bcl-2 protein) were 190 nM and 20.5 nM, respectively.

`CN1CCN(C[C@@H]2Cc3ccccc3CN2C(=O)c2ccc(Br)cc2-n2cc(C(=O)N(c3ccc(O)cc3)c3ccc(Cl)cc3)c3ccccc32)CC1` [Example 59, 1-(5-Bromo-2-{[(3S)-3-[(4-methylpiperazin-1-yl)methyl]-3,4-dihydroisoquinolin-2(1H)-yl]carbonyl}phenyl)-N-(4-chlorophenyl)-N-(4-hydroxyphenyl)-1H-indole-3-carboxamide]: the figures for the IC50 (in test [1] (Homo sapiens); on Bcl-2 protein) were 206 nM and 19.2 nM, respectively.

As for `CC(=O)Oc1ccc(N(C(=O)c2cn(-c3cc4c(cc3C(=O)N3Cc5ccccc5C[C@H]3CN3CCN(C)CC3)OCO4)c3ccccc23)c2ccc(C)cc2)cc1` [Example 60, 4-[(4-Methylphenyl){[1-(6-{[(3S)-3-[(4-methylpiperazin-1-yl)methyl]-3,4-dihydroisoquinolin-2(1H)-yl]carbonyl}-1,3-benzodioxol-5-yl)-1H-indol-3-yl]-carbonyl}amino]phenyl acetate], the IC50 was determined as 89.5 nM in test [1] and 206 nM on Bcl-2 protein.

Regarding `Cc1cc(C(=O)N(c2ccc(O)cc2)c2ccc(O)cc2)cn1-c1cc(Br)ccc1C(=O)N1Cc2ccccc2C[C@H]1CN1CCN(C)CC1` [Example 61, 1-(5-Bromo-2-{[(3S)-3-[(4-methylpiperazin-1-yl)methyl]-3,4-dihydroisoquinolin-2(1H)-yl]carbonyl}phenyl)-N,N-bis(4-hydroxyphenyl)-5-methyl-1H-pyrrole-3-carboxamide], the IC50 stood at 204 nM in test [1] (Homo sapiens) and 7.7 nM at Bcl-2 protein.

As to `Cc1cc(C(=O)N(c2ccc(O)cc2)c2ccc(Cl)cc2)cn1-c1cc(Br)ccc1C(=O)N1Cc2ccccc2C[C@H]1CN1CCN(C)CC1` [Example 62, 1-(5-Bromo-2-{[(3S)-3-[(4-methylpiperazin-1-yl)methyl]-3,4-dihydroisoquinolin-2(1H)-yl]carbonyl}phenyl)-N-(4-chlorophenyl)-N-(4-hydroxyphenyl)-5-methyl-1H-pyrrole-3-carboxamide], the IC50 in test [1] (Homo sapiens) stood at 205 nM; at Bcl-2 protein it was 7.5 nM.

`Cc1ccc(N(C(=O)c2cn(-c3cc4c(cc3C(=O)N3Cc5ccccc5C[C@H]3CN3CCN(C)CC3)OCO4)c3ccccc23)c2ccc(O)c(Cl)c2)cc1` [Example 63, N-(3-Chloro-4-hydroxyphenyl)-N-(4-methylphenyl)-1-(6-{[(3S)-3-[(4-methylpiperazin-1-yl)methyl]-3,4-dihydroisoquinolin-2(1H)-yl]carbonyl}-1,3-benzodioxol-5-yl)-1H-indole-3-carboxamide hydrochloride]: the IC50 was 1510 nM in test [1] (Homo sapiens) and 168 nM on Bcl-2 protein.

`CC(C)c1ccc(N(C(=O)c2cn(-c3cc4c(cc3C(=O)N3Cc5ccccc5C[C@H]3CN3CCN(C)CC3)OCO4)c3ccccc23)c2ccc(O)c(Cl)c2)cc1` [Example 64, N-(3-Chloro-4-hydroxyphenyl)-1-(6-{[(3S)-3-[(4-methylpiperazin-1-yl)methyl]-3,4-dihydroisoquinolin-2(1H)-yl]carbonyl}-1,3-benzodioxol-5-yl)-N-[4-(propan-2-yl)phenyl]-1H-indole-3-carboxamide hydrochloride]: the IC50 in test [1] (Homo sapiens) amounted to 1360 nM; at Bcl-2 protein, 296 nM.

For `Cc1cc(C(=O)N(c2ccc(O)cc2)c2ccc(Cl)cc2)cn1-c1cc(Cl)ccc1C(=O)N1Cc2ccccc2C[C@H]1CN1CCN(C)CC1` [Example 65, 1-(5-Chloro-2-{[(3S)-3-[(4-methylpiperazin-1-yl)methyl]-3,4-dihydroisoquinolin-2(1H)-yl]carbonyl}phenyl)-N-(4-chlorophenyl)-N-(4-hydroxyphenyl)-5-methyl-1H-pyrrole-3-carboxamide], the half-inhibitory concentration (IC50) in test [1] (Homo sapiens) amounted to 130 nM; at Bcl-2 protein, 5.1 nM.

For `Cc1cc(C(=O)N(c2ccc(O)cc2)c2ccc(F)cc2)cn1-c1cc(Cl)ccc1C(=O)N1Cc2ccccc2C[C@H]1CN1CCN(C)CC1` [Example 66, 1-(5-Chloro-2-{[(3S)-3-[(4-methylpiperazin-1-yl)methyl]-3,4-dihydroisoquinolin-2(1H)-yl]carbonyl}phenyl)-N-(4-fluorophenyl)-N-(4-hydroxyphenyl)-5-methyl-1H-pyrrole-3-carboxamide], the results for the IC50 (in test [1] (Homo sapiens); on Bcl-2 protein) were 148 nM and 6.6 nM, respectively.

On to `Cc1cc(C(=O)N(c2ccc(O)cc2)c2ccc(O)cc2)cn1-c1cc(Cl)ccc1C(=O)N1Cc2ccccc2C[C@H]1CN1CCN(C)CC1` [Example 67, 1-(5-Chloro-2-{[(3S)-3-[(4-methylpiperazin-1-yl)methyl]-3,4-dihydroisoquinolin-2(1H)-yl]carbonyl}phenyl)-N,N-bis(4-hydroxyphenyl)-5-methyl-1H-pyrrole-3-carboxamide], for which the IC50 in test [1] (Homo sapiens) was 101 nM; on Bcl-2 protein, 5.9 nM.

In the case of `Cc1ccc(N(C(=O)c2cn(-c3cc4c(cc3C(=O)N3Cc5ccccc5C[C@H]3CN3CCN(C)CC3)OCO4)c3ccccc23)c2ccc3[nH]ncc3c2)cc1` [Example 68, N-(1H-Indazol-5-yl)-N-(4-methylphenyl)-1-(6-{[(3S)-3-[(4-methylpiperazin-1-yl)methyl]-3,4-dihydroisoquinolin-2(1H)-yl]carbonyl}-1,3-benzodioxol-5-yl)-1H-indole-3-carboxamide hydrochloride], the IC50 in test [1] (Homo sapiens) turned out to be 856 nM; on Bcl-2 protein it was 79.7 nM.

For the compound `CN1CCN(C[C@@H]2Cc3ccccc3CN2C(=O)c2ccc(Br)cc2-n2cc(C(=O)N(c3ccc(O)cc3)c3ccc4c(ccn4C)c3)c3ccccc32)CC1` [Example 69, 1-(5-Bromo-2-{[(3S)-3-[(4-methylpiperazin-1-yl)methyl]-3,4-dihydroisoquinolin-2(1H)-yl]carbonyl}phenyl)-N-(4-hydroxyphenyl)-N-(1-methyl-1H-indol-5-yl)-1H-indole-3-carboxamide hydrochloride], the values for the IC50 (in test [1] (Homo sapiens); at Bcl-2 protein) were 67.6 nM and 9 nM, respectively.
